Tests used:
[1] = 1E7-03 degradation in ferret plasma; assay type: in vitro ADME; details: 37°C
Experimental: (§1) 1E7-03 dissolved in DMSO (10 mM stock solution) was mixed with mouse plasma (Sigma-Aldrich), guinea pig plasma (Sigma-Aldrich), ferret plasma (BioreclamationIVT), monkey plasma (courtesy of Binhua Ling, PhD, Tulane University) and human plasma (collected from heathy volunteer by the Center for Sickle Cell Disease at Howard University) to the final concentration of 10 μM and incubated at 37°C. Aliquots were collected at different time points for up to 24 hrs. The resulting sample (60 μl) was mixed with 240 μl of cold acetone, vortexed for 2 min, kept at –20°C for 30 min, and then the precipitated protein was removed by centrifugation at 13,000 × g for 5 min. The supernatant was transferred to a clean test tube and evaporated to dryness using a SpeedVac concentrator. The residue reconstituted in 60 μl of acetonitrile for LC/FT-MS analysis. All experiments were run parallel in triplicates.

[2] = 1E7-03 degradation in guinea pig plasma; assay type: in vitro ADME; details: 10 μM, 37°C, 4 hrs
Experimental: as §1

[3] = system: RSP13 and β-actin mRNA in CEM T cells; assay: Cellular transcription, RSP13 and β-actin mRNA by real-time RT-PCR; assay type: cell-based; details: 10 μM, in words
Experimental: For quantitative analysis of HIV-1 RNA, CEM T cells were infected with HIV-1-LUC-G virus. Cells were treated with 10 μM 1E7-03, 10 μM DP1, 10 μM DP3, 5 μM AZT or 5 μM 3TC and control cells were untreated or treated with DMSO. Total RNA was isolated using Trizol Reagent (Invitrogen, Carlsbad, CA) according to the manufacturer's protocol. Total RNA (100 ng) was reverse transcribed to cDNA using Superscript™ RT-PCR kit (Invitrogen, Carlsbad, CA). Hexamers and oligo-dT were used as primers. For real-time PCR analysis, cDNA was amplified using Roche LightCycler 480 (Roche Diagnostics) and SYBR Green1 Master mix (Roche Diagnostics). PCR was run for 45 cycles and each cycle included denaturation at 95°C for 10 seconds, annealing at 60°C for 10 seconds, and extension at 72°C for 10 seconds. Quantification of env and gag was carried using 18S RNA as a normalization standard. Quantification of housekeeping genes, β-actin and RSP13 was carried relative to 18S RNA. Mean Cp values were determined and ΔΔCt method was used to calculate relative expression levels. Unpaired t-test was used to test statistical significance.
The following primer sequences were used: env, forward - […], reverse-[…]; gag, forward- […], reverse- […]; β-actin, forward- […], reverse-[…]; RSP13, forward- […], reverse- […]; and 18SrRNA, forward- […], reverse- […].

HIV-1 integration = assay: HIV-1 integration, Alu-Gag real-time PCR in CEM T cells; assay type: cell-based; details: 10 μM, DNA 6 hrs post infection, in words
Experimental: To assay HIV-1 integration, CEM T cells were infected with HIV-1-LUC-G virus and treated with 10 μM 1E7-03 or DMSO. Total DNA was extracted from cells using lysis buffer (10 mM Tris-HCl pH 8.0, 10 mM EDTA, 5 mM NaCl, 200 μg/ml proteinase K). The cells were lysed for 20-30 min at room temperature and proteinase K was inactivated by heating to 95°C for 5 min. For the real-time PCR analysis, 100 ng DNA was amplified using Roche Light Cycler 480 (Roche Diagnostics) and SYBR Green1 Master mix (Roche Diagnostics). PCR was carried with initial preincubation for 5 min at 45°C and then for 3 in at 95°C followed by 45 cycles of denaturation at 95°C for 15 sec, annealing and extension at 60°C for 45 sec, and final extension at 72°C for 10 sec. Integrated HIV-1 DNA was amplified using the following primers: Alu forward 5'-[…]-3', and Gag reverse 5'-[…]-3'.

CCNC(=O)NC(=O)C(C)OC(=O)c1c2c(nc3ccccc13)/C(=C/c1ccc(OC)c(OC)c1)CC2 (centres unmarked) [1E7-03]
remaining at 24 h, 10 µM [1]: > 50% | % of compound degraded [2]: about 80% | RSP13 mRNA expression [3]: slight induction | β-actin mRNA expression [3]: slight induction | effect on HIV-1 integration (HIV-1 integration): did not show any significant effect

— article PMC5652740, “Inhibition of HIV-1 infection in humanized mice and metabolic stability of protein phosphatase-1-targeting small molecule 1E7-03” (Oncotarget, 2017)
